Test results: patent US5843941A, “Ras farnesyl transferase inhibitors” (Genentech, Inc., priority 1994, dated 1998)
Like-named read-outs stand apart in the source and are kept apart here.

Molecular target: CAAX farnesyltransferase (Rattus norvegicus, UniProt Q02293+Q04631)
Experiment: In vitro inhibition of CAAX farnesyltransferase
Type: biochemical
Set-up: purified to homogeneity from rat brain homogenates; from tissue; host or cells: rat brain; alternatively recombinant enzyme from a baculovirus expression system
Conditions: Table D
Experimental: All compounds were tested for in vitro inhibition of CAAX protein farnesyltransferase. […] Alternatively, recombinant CAAX protein farnesyltransferase was also used in this assay. […] Seventy-two hrs after infection, the cells were harvested and disrupted and the enzyme isolated by chromatography on Q-Sepharose.
After incubation for 30 min at 37° C., the amount of [3H]famesyl group transferred to p21H-ras was measured by precipitation with SDS/trichloroacetic acid, filtration onto nitrocellulose, and scintillation counting.
Structures of the compounds tested are reproduced below. Compound numbers also refer to example numbers above.

[1] = diastereomer A, read-out: EC50 (μM) "A"
[2] = diastereomer B, read-out: EC50 (μM) "B"

Chain of CAAX farnesyltransferase (Q02293 whole entry, one chain of several): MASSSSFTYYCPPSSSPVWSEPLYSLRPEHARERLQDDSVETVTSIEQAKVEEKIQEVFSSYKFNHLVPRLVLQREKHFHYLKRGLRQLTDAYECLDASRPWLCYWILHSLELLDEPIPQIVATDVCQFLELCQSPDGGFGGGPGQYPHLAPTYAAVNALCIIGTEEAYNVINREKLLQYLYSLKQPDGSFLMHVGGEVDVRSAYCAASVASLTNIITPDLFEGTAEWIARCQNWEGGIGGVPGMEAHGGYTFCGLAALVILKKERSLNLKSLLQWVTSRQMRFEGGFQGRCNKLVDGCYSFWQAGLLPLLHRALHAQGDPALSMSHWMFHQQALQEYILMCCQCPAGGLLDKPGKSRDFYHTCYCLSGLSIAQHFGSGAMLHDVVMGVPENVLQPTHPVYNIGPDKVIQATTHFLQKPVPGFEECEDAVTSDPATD

Compound	EC50 [1] [µM]	EC50 [2] [µM]
C[C@@H](O)[C@H](NC(=O)CN1C(=O)C(N(C)C(=O)[C@@H](N)CS)N=C(c2ccccc2)c2ccccc21)C(=O)O (stereo partly drawn) [compound 51, N-[[3-[(2-amino-3-mercapto-1-oxopropyl)methylamino]-2,3-dihydro-2-oxo-5-phenyl-1H-1,4-benzodiazepin-1-yl]acetyl]-L-threonine]	> 3	0.0017
CN(C(=O)[C@@H](N)CS)C1N=C(c2ccccc2)c2ccccc2N(CC(=O)N[C@@H](CCC(N)=O)C(=O)O)C1=O (stereo partly drawn) [compound 52, N-[[3-[(2-amino-3-mercapto-1-oxopropyl)methylamino]-2,3-dihydro-2-oxo-5-phenyl-1H-1,4-benzodiazepin-1-yl]acetyl]-L-glutamine]	> 3	0.0018
CN(C(=O)[C@@H](N)CS)C1N=C(c2ccccc2)c2ccccc2N(CC(=O)NCC(=O)O)C1=O (stereo partly shown) [compound 53, N-[[3-[(2-amino-3-mercapto-1-oxopropyl)methylamino]-2,3-dihydro-2-oxo-5-phenyl-1H-1,4-benzodiazepin-1-yl]acetyl]-glycine]	> 3	0.0004
CN(C(=O)[C@@H](N)CS)C1N=C(c2ccccc2)c2ccccc2N(CC(=O)N[C@@H](Cc2ccc(O)cc2)C(=O)O)C1=O (stereo partly drawn) [compound 54, N-[[3-[(2-amino-3-mercapto-1-oxopropyl)methylamino]-2,3-dihydro-2-oxo-5-phenyl-1H-1,4-benzodiazepin-1-yl]acetyl]-L-tyrosine]	1.5	0.004
CN(C(=O)[C@@H](N)CS)C1N=C(c2ccccc2)c2ccccc2N(CC(=O)N[C@@H](CC2CCCCC2)C(=O)O)C1=O (stereo partly drawn) [compound 57, N-[[3-[(2-amino-3-mercapto-1-oxopropyl)methylamino]-2,3-dihydro-2-oxo-5-phenyl-1H-1,4-benzodiazepin-1-yl]acetyl]-(β-cyclohexyl)-L-alanine]	2	0.0015
CN(C(=O)[C@@H](N)CS)C1N=C(c2ccccc2)c2ccccc2N(CC(=O)N[C@H](C(=O)O)C2CCCCC2)C1=O (stereo partly drawn) [compound 58, N-[[3-[(2-amino-3-mercapto-1-oxopropyl)methylamino]-2,3-dihydro-2-oxo-5-phenyl-1H-1,4-benzodiazepin-1-yl]acetyl]-(α-cyclohexyl)-glycine]	1.1	0.0006
CN(C(=O)[C@@H](N)CS)C1N=C(c2ccccc2)c2ccccc2N(CC(=O)N[C@@H](CCc2ccccc2)C(=O)O)C1=O (stereo partly drawn) [compound 59, N-[[3-[-(2-amino-3-mercapto-1-oxopropyl)methylamino]-2,3-dihydro-2-oxo-5-phenyl-1H-1,4-benzodiazepin-1-yl]acetyl]-L-homo-phenylalanine]	1.1	0.0012
CN(C(=O)[C@@H](N)CS)C1N=C(c2ccccc2)c2ccccc2N(CC(=O)N[C@@H](Cc2ccc(F)cc2)C(=O)O)C1=O (stereo partly shown) [compound 60]	0.94	0.0005
CN(C(=O)[C@@H](N)CS)C1N=C(c2ccccc2)c2ccccc2N(CC(=O)N[C@@H](Cc2ccc(-c3ccccc3)cc2)C(=O)O)C1=O (stereo partly drawn) [compound 61, N-[[3-[(2-amino-3-mercapto-1-oxopropyl)methylamino]-2,3-dihydro-2-oxo-5-phenyl-1H-1,4-benzodiazepin-1-yl]acetyl]-(β-biphenyl)-L-alanine]	1.7	0.0035
CCCC[C@H](NC(=O)CN1C(=O)C(N(C)C(=O)[C@@H](N)CS)N=C(c2ccccc2)c2ccccc21)C(=O)O (stereo partly drawn) [compound 62, N-[[3-[(2-amino-3-mercapto-1-oxopropyl)methylamino]-2,3-dihydro-2-oxo-5-phenyl-1H-1,4benzodiazepin-1-yl]acetyl]-L-norleucine]	0.72	0.0005
CSCC[C@@H](C(=O)O)N(C)C(=O)CN1C(=O)C(NC(=O)[C@@H](N)CS)N=C(c2ccccc2)c2ccccc21 (stereo partly shown) [compound 63]	> 10	2
